From article PMC5773535, “Plasmodium dihydrofolate reductase is a second enzyme target for the antimalarial action of triclosan” (Scientific Reports, 2018)

What was measured:
[1] = target: P. vivax dihydrofolate reductase (PvDHFR) (Plasmodium vivax, UniProt O02604); assay: spectrophotometric DHFR assay at […] nm (NADPH/DHF consumption), purified enzyme; format: biochemical
[2] = target: T1, human dihydrofolate reductase (HsDHFR) (Homo sapiens, UniProt P00374); assay: as above; format: biochemical
T1 construct: gene DHFR
T1 sequence (P00374 1-187): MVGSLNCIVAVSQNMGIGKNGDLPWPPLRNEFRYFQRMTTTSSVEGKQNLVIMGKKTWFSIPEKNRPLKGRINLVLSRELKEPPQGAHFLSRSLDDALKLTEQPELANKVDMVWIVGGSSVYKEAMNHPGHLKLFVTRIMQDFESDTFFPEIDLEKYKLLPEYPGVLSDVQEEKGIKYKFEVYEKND

Sequence of P. vivax dihydrofolate reductase (PvDHFR) (O02604 1-240): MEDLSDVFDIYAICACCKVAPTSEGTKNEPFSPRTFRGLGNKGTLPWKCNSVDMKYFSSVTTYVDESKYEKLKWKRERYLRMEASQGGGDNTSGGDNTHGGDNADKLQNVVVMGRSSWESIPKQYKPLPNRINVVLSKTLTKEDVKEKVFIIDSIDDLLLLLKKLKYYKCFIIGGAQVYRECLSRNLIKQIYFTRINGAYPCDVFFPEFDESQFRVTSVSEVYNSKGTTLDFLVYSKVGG

**Q.** With `Oc1cc(Cl)ccc1Oc1ccc(Cl)cc1Cl` [triclosan] as the compound, how does the IC50 [1] read?
**A.** 0.775 ± 0.384 µM

**Q.** And the IC50 [2]?
**A.** 17.2 ± 4.9 µM
